Laboratory results from article PMC3355094 (PLoS Pathogens, 2012).
Values joined by “and” are separate entries in the source; they are usually repeats but may differ in a detail not shown here. Equal entries are not always repeated.

Test system: CCL1
Assay: Glycan array analysis of CCL1 (CFG mammalian glycan array V4.2)
Assay type: binding, Coprinopsis cinerea
Settings: Alexa Fluor 488 labeled CCL1 200 µg/ml, array V4.2, average of triplicates
Experimental: (§1) Purified CCL1 and CCL2 were fluorescently labeled with Alexa Fluor 488 (Invitrogen) according to the manufacturer's protocol and used (at a final concentration of 200 µg/ml) to probe versions 4.2 and 3.1, respectively, of the mammalian glycan array offered by Core H of the Consortium for Functional Glycomics (CFG).

Molecule	RFU (relative fluorescence units)
GalNAc1-3(Fuc1-2)Gal1-4Glc-Sp0	2 RFU
Fuc-Sp9	-10 RFU
[6OSO3]GlcNAc-Sp8	14 RFU
GalNAc1-3GalNAc-Sp8	7 RFU and 14 RFU
Fuc1-2Gal1-3GalNAc-Sp14	25 RFU
Fuc1-2Gal1-4(Fuc1-3)GlcNAc-Sp0	10 RFU
Gal1-3(Fuc1-2)Gal1-4GlcNAc-Sp0	41 RFU
Gal1-3(Fuc1-2)Gal1-4(Fuc1-3)GlcNAc-Sp8	35 RFU
NCCCO[C@@H]1O[C@H](CO)[C@@H](O)[C@H](O)[C@H]1NC(=O)CO [GlcN(Gc)-Sp8]	32 RFU
Fuc1-2Gal1-3GlcNAc-Sp0	3 RFU
Gal-Sp8	99 RFU and 68 RFU
[3OSO3]Gal-Sp8	42 RFU
[3OSO3]Gal1-4[6OSO3]Glc-Sp0	329 RFU
GalNAc1-3(Fuc1-2)Gal1-4(Fuc1-3)GlcNAc-Sp0	75 RFU
Fuc1-2Gal1-4(Fuc1-3)GlcNAc1-3Gal1-4(Fuc1-3)GlcNAc-Sp0	54 RFU
GalNAc1-3(Fuc1-2)Gal1-3GlcNAc-Sp0	100 RFU
GalNAc1-3(Fuc1-2)Gal1-4GlcNAc-Sp8	25 RFU
[3OSO3]Gal1-4(Fuc1-3)Glc-Sp0	140 RFU
Fuc1-2Gal-Sp8	12 RFU
GlcNAc-Sp8	4 RFU
Gal1-3(Fuc1-2)Gal1-4(Fuc1-3)GlcNAc-Sp0	46 RFU
GalNAc1-3(Fuc1-2)Gal-Sp8	7 RFU and 8 RFU
[9NAc]Neu5Ac2-6Gal1-4GlcNAc-Sp8	6 RFU
Gal1-3(Fuc1-2)Gal1-3GlcNAc-Sp0	61 RFU
Fuc1-2Gal1-4(Fuc1-3)GlcNAc1-3Gal1-4(Fuc1-3)GlcNAc1-3Gal1-4(Fuc1-3)GlcNAc-Sp0	1835 RFU
GalNAc1-3(Fuc1-2)Gal1-4GlcNAc-Sp0	82 RFU
[6OSO3]Gal1-4Glc-Sp0	23 RFU

Molecule	RFU (relative fluorescence units)
GalNAc1-4GlcNAc-Sp0	-11 RFU
Fuc1-4GlcNAc-Sp8	62 RFU
[9NAc]Neu5Ac-Sp8	27 RFU
[6OSO3]Gal1-4Glc-Sp8	9 RFU
Fuc1-2Gal1-3GalNAc1-4(Neu5Ac2-3)Gal1-4Glc-Sp0	5 RFU
Fuc1-2Gal1-4GlcNAc1-3Gal1-4GlcNAc-Sp0	15 RFU
GlcNAc1-2Man1-3(GlcNAc1-2Man1-6)Man1-4GlcNAc1-4GlcNAc-Sp12	90 RFU
C[C@@H]1O[C@@H](OCCCN)[C@@H](O)[C@H](O)[C@@H]1O [Fuc-Sp8]	26 RFU
Neu5Ac2-3[6OSO3]Gal1-4GlcNAc-Sp8	3479 RFU
Fuc1-2Gal1-4GlcNAc-Sp0	52 RFU
C[C@@H]1O[C@@H](OCCCN)[C@H](O)[C@H](O)[C@H]1O [Rha-Sp8]	46 RFU
Fuc1-3GlcNAc-Sp8	30 RFU and 54 RFU
GlcNAc1-3Gal1-3GalNAc-Sp8	11 RFU
[3OSO3]Gal1-4(Fuc1-3)GlcNAc-Sp8	407 RFU
GalNAc1-3(Fuc1-2)Gal-Sp18	19 RFU
Neu5Ac2-6Gal1-4GlcNAc1-2Man1-3(Neu5Ac2-6Gal1-4GlcNAc1-2Man1-6)Man1-4GlcNAc1-4GlcNAc-N(LT)AVL	78 RFU
Fuc1-2Gal1-3GlcNAc1-3Gal1-4Glc-Sp8	1 RFU
GalNAc1-3Gal1-4Gal1-4GlcNAc-Sp0	18 RFU
Neu5Ac2-6Gal1-4GlcNAc1-2Man1-3(Neu5Ac2-6Gal1-4GlcNAc1-2Man1-6)Man1-4GlcNAc1-4GlcNAc-Sp13	86 RFU
Fuc1-2Gal1-3(Fuc1-4)GlcNAc-Sp8	80 RFU
Fuc1-2Gal1-4GlcNAc-Sp8	45 RFU
[3OSO3]Gal1-3(Fuc1-4)GlcNAc-Sp8	89 RFU
[3OSO3]Gal1-4(Fuc1-3)[6OSO3]Glc-Sp0	250 RFU
Neu5Ac-Sp11	247 RFU
Fuc1-2Gal1-4(Fuc1-3)GlcNAc-Sp8	29 RFU
Fuc1-2Gal1-3GalNAc1-3Gal-Sp9	129 RFU
Neu5Ac-Sp8	113 RFU and 98 RFU

Molecule	RFU (relative fluorescence units)
[3OSO3]Gal1-3GlcNAc-Sp8	173 RFU
[6OSO3]Gal1-4GlcNAc-Sp8	27 RFU
[3OSO3]Gal1-4[6OSO3]GlcNAc-Sp0	293 RFU
[3OSO3]Gal1-4[6OSO3]Glc-Sp8	228 RFU
[3OSO3]Gal1-4GlcNAc-Sp0	141 RFU
CC(=O)N[C@H]1[C@H](OCCN)O[C@H](CO)[C@@H](O)[C@@H]1O [GlcNAc-Sp0]	6 RFU
Fuc1-2Gal1-3GalNAc-Sp8	70 RFU
[3OSO3]Gal1-3GlcNAc-Sp0	93 RFU
Gal1-3(Fuc1-2)Gal1-3GlcNAc-Sp8	31 RFU
Fuc1-2Gal1-3GalNAc1-4(Neu5Ac2-3)Gal1-4Glc-Sp9	20 RFU
Gal1-4GlcNAc1-2Man1-3(Gal1-4GlcNAc1-2Man1-6)Man1-4GlcNAc1-4GlcNAc-Sp12	121 RFU
GalNAc-Sp15	148 RFU
GalNAc1-3Gal-Sp8	8 RFU
Fuc1-2Gal1-3GlcNAc1-3Gal1-4Glc-Sp10	20 RFU
Fuc1-2Gal1-4GlcNAc1-3Gal1-4GlcNAc1-3Gal1-4GlcNAc-Sp0	61 RFU
Man1-3(Man1-6)Man1-4GlcNAc1-4GlcNAc-Sp12	84 RFU
Gal1-4GlcNAc1-3(Gal1-4GlcNAc1-6)GalNAc-Sp8	24 RFU
GalNAc1-4(Fuc1-3)GlcNAc-Sp0	7887 RFU
Gal1-2Gal-Sp8	71 RFU
Fuc1-2Gal1-3GlcNAc-Sp8	18 RFU
GalNAc1-4GlcNAc-Sp8	3 RFU
GalNAc1-4(Fuc1-2)Gal1-4GlcNAc-Sp8	13 RFU
Fuc1-2Gal1-3GalNAc1-3Gal1-4Gal1-4Glc-Sp9	76 RFU
[3OSO3]Gal1-4(Fuc1-3)GlcNAc-Sp0	383 RFU
Fuc1-2Gal1-4Glc-Sp0	47 RFU

Test system: CCL2
Assay: Glycan array analysis of CCL2 (CFG mammalian glycan array V3.1)
Assay type: binding, Coprinopsis cinerea
Settings: Alexa Fluor 488 labeled CCL2 200 µg/ml, array V3.1, average of triplicates
Experimental: as §1

Molecule	RFU (relative fluorescence units)
Neu5Ac2-8Neu5Ac2-8Neu5AcSp8	66.6 RFU
9NAcNeu5Ac2-6Gal1-4GlcNAc-Sp8	239.4 RFU
-Neu5Ac–Sp11	119.3 RFU
[3OSO3]Gal1-4GlcNAc–Sp0	115.6 RFU
[6OSO3]Gal1-4Glc–Sp0	307.4 RFU
C[C@@H]1O[C@@H](OCCCN)[C@@H](O)[C@H](O)[C@@H]1O [-L-Fuc–Sp8]	416.6 RFU
NeuAc2-3[6OSO3]Gal1-4GlcNAc–Sp8	40316.6 RFU
[3OSO3]Gal1-4(Fuc1-3)GlcNAc–Sp8	265.1 RFU
[6OSO3]GlcNAc–Sp8	141.7 RFU
-Neu5Ac-Sp8	122.4 RFU
[6OSO3]Gal1-4GlcNAc–Sp8	133.9 RFU
-L-Fuc–Sp9	136.8 RFU
-Neu5Ac–Sp8	247.4 RFU
-D-Gal–Sp8	280.7 RFU and 194.7 RFU
[6OSO3]Gal1-4Glc–Sp8	269.4 RFU
Neu5Gc2-6Gal1-4GlcNAc-Sp8	182.6 RFU
[3OSO3]Gal1-3(Fuc1-4)GlcNAc–Sp8	628.7 RFU
[3OSO3]Gal1-4(6OSO3)Glc–Sp0	151.3 RFU
-GalNAc–Sp8	151.8 RFU and 273.6 RFU
CC(=O)N[C@H]1[C@H](OCCN)O[C@H](CO)[C@@H](O)[C@@H]1O [-GlcNAc–Sp0]	172.7 RFU
NCCCO[C@H]1O[C@H](CO)[C@@H](O)[C@H](O)[C@@H]1O [-D-Man–Sp8]	152.9 RFU and 130.5 RFU
NCCCO[C@@H]1O[C@H](CO)[C@@H](O)[C@H](O)[C@H]1NC(=O)CO [-GlcN(Gc)-Sp8, -GlcN(Gc)- Sp8]	136.2 RFU
Neu5Ac2-8Neu5Ac-Sp17	155.0 RFU
[3OSO3]Gal–Sp8	75.5 RFU

Same assay, conditions: fluorescently labeled CCL2 200 µg/ml, array V3.1

Molecule	binding on glycan array (in words)
CC(=O)N[C@H]1C(O)O[C@H](CO)[C@@H](O)[C@@H]1O[C@@H]1O[C@@H](C)[C@@H](O)[C@@H](O)[C@@H]1O (stereo partly shown) [Fucα1,3GlcNAc]	very low fluorescence
CC(=O)N[C@H]1[C@H](O[C@H]2[C@H](O[C@@H]3O[C@@H](C)[C@@H](O)[C@@H](O)[C@@H]3O)[C@@H](NC(C)=O)C(O)O[C@@H]2CO)O[C@H](CO)[C@H](O)[C@@H]1O (stereo partly shown) [fucosylated LacdiNAc, GalNAcβ1,4[Fucα1,3]GlcNAc]	binds

Same assay, conditions: fluorescently labeled CCL2 200 µg/ml, array V3.1; listed as GalNAcβ1,4[Fucα1,3]GlcNAc

Molecule	binding on glycan array (in words)
CC(=O)N[C@H]1[C@H](O[C@H]2[C@H](O[C@@H]3O[C@@H](C)[C@@H](O)[C@@H](O)[C@@H]3O)[C@@H](NC(C)=O)C(O)O[C@@H]2CO)O[C@H](CO)[C@H](O)[C@@H]1O (stereo partly shown) [fucosylated LacdiNAc, GalNAcβ1,4[Fucα1,3]GlcNAc]	one of the best binders
